{"source": "patent US10238670B2", "about": "“9-aminomethyl minocycline compounds and methods of use thereof in urinary tract infection (UTI) treatment” (Paratek Pharmaceuticals, Inc., priority 2016, dated 2019)", "test_in_all_cases": "In vitro MIC, 2010 surveillance isolates", "key": {"[1]": {"test_system": "E. coli ESBL−", "format": "cell-based, Escherichia coli", "conditions": "for Cumulative % Inhibition at MIC: N=3376"}, "[2]": {"test_system": "E. faecalis VS", "format": "cell-based", "conditions": "for Cumulative % Inhibition at MIC: N=2036"}, "[3]": {"test_system": "K. pneumoniae ESBL+", "format": "cell-based, Klebsiella pneumoniae", "conditions": "for Cumulative % Inhibition at MIC: N=592"}, "[4]": {"test_system": "E. cloacae CeftazR", "format": "cell-based", "conditions": "for Cumulative % Inhibition at MIC: N=254"}, "[5]": {"test_system": "MSSA", "format": "cell-based", "conditions": "for Cumulative % Inhibition at MIC: N=5713"}, "[6]": {"test_system": "E. faecium VNS", "format": "cell-based", "conditions": "for Cumulative % Inhibition at MIC: N=614"}, "[7]": {"test_system": "MRSA", "format": "cell-based", "conditions": "for Cumulative % Inhibition at MIC: N=4192"}, "[8]": {"test_system": "K. pneumoniae ESBL−", "format": "cell-based, Klebsiella pneumoniae", "conditions": "for Cumulative % Inhibition at MIC: N=1381"}, "[9]": {"test_system": "E. faecalis VNS", "format": "cell-based", "conditions": "for Cumulative % Inhibition at MIC: N=54"}}}
{"smiles": "CN(C)c1cc(CNCC(C)(C)C)c(O)c2c1C[C@H]1C[C@H]3[C@H](N(C)C)C(O)=C(C(N)=O)C(=O)[C@@]3(O)C(O)=C1C2=O", "note": "[Compound 1, 9-[(2,2-dimethyl-propylamino)-methyl]-minocycline]", "values": [{"measurement": "Cumulative % Inhibition at MIC", "setting": "[1]; MIC ≤0.5 μg/ml, listed as head image P00005", "value": 54.2, "unit": "%"}, {"measurement": "Cumulative % Inhibition at MIC", "setting": "[1]; MIC ≥32 μg/ml", "value": 100, "unit": "%"}, {"measurement": "MIC90", "setting": "[1]; N America, N=1172", "value": 2, "unit": "µg/mL"}, {"measurement": "MIC90", "setting": "[2]; Asia/Pac, N=214", "value": 0.5, "unit": "µg/mL"}, {"measurement": "MIC90", "setting": "[2]; Europe, N=669", "value": 0.25, "unit": "µg/mL"}, {"measurement": "MIC90", "setting": "[2]; L. Amer, N=290", "value": 0.25, "unit": "µg/mL"}, {"measurement": "Cumulative % Inhibition at MIC", "setting": "[2]; MIC 1 μg/ml", "value": 99.9, "unit": "%"}, {"measurement": "Cumulative % Inhibition at MIC", "setting": "[2]; MIC 2 μg/ml", "value": 100, "unit": "%"}, {"measurement": "Cumulative % Inhibition at MIC", "setting": "[2]; MIC ≤0.5 μg/ml, listed as head image P00001", "value": 99.3, "unit": "%"}, {"measurement": "MIC90", "setting": "[2]; N America, N=863", "value": 0.5, "unit": "µg/mL"}, {"measurement": "MIC90", "setting": "[3]; Asia/Pac, N=124", "value": 16, "unit": "µg/mL"}, {"measurement": "MIC90", "setting": "[3]; Europe, N=151", "value": 8, "unit": "µg/mL"}, {"measurement": "MIC90", "setting": "[3]; L. Amer, N=209", "value": 16, "unit": "µg/mL"}, {"measurement": "Cumulative % Inhibition at MIC", "setting": "[3]; MIC 1 μg/ml", "value": 19.3, "unit": "%"}, {"measurement": "Cumulative % Inhibition at MIC", "setting": "[3]; MIC 2 μg/ml", "value": 56.8, "unit": "%"}, {"measurement": "Cumulative % Inhibition at MIC", "setting": "[3]; MIC 4 μg/ml", "value": 79.6, "unit": "%"}, {"measurement": "Cumulative % Inhibition at MIC", "setting": "[3]; MIC 8 μg/ml", "value": 90.2, "unit": "%"}, {"measurement": "Cumulative % Inhibition at MIC", "setting": "[3]; MIC 16 μg/ml", "value": 94.8, "unit": "%"}, {"measurement": "Cumulative % Inhibition at MIC", "setting": "[3]; MIC ≤0.5 μg/ml, listed as head image P00010", "value": 1.7, "unit": "%"}, {"measurement": "Cumulative % Inhibition at MIC", "setting": "[3]; MIC ≥32 μg/ml", "value": 100, "unit": "%"}, {"measurement": "MIC90", "setting": "[3]; N America, N=108", "value": 16, "unit": "µg/mL"}, {"measurement": "MIC90", "setting": "[4]; Asia/Pac, N=63", "value": 8, "unit": "µg/mL"}, {"measurement": "MIC90", "setting": "[4]; Europe, N=72", "value": 8, "unit": "µg/mL"}, {"measurement": "MIC90", "setting": "[4]; L. Amer, N=42", "value": 4, "unit": "µg/mL"}, {"measurement": "Cumulative % Inhibition at MIC", "setting": "[4]; MIC 1 μg/ml", "value": 7.9, "unit": "%"}, {"measurement": "Cumulative % Inhibition at MIC", "setting": "[4]; MIC 2 μg/ml", "value": 54.3, "unit": "%"}, {"measurement": "Cumulative % Inhibition at MIC", "setting": "[4]; MIC 4 μg/ml", "value": 81.9, "unit": "%"}, {"measurement": "Cumulative % Inhibition at MIC", "setting": "[4]; MIC 8 μg/ml", "value": 90.2, "unit": "%"}, {"measurement": "Cumulative % Inhibition at MIC", "setting": "[4]; MIC 16 μg/ml", "value": 94.1, "unit": "%"}, {"measurement": "Cumulative % Inhibition at MIC", "setting": "[4]; MIC ≤0.5 μg/ml, listed as head image P00015", "value": 0.4, "unit": "%"}, {"measurement": "Cumulative % Inhibition at MIC", "setting": "[4]; MIC ≥32 μg/ml", "value": 100, "unit": "%"}, {"measurement": "MIC90", "setting": "[4]; N America, N=77", "value": 16, "unit": "µg/mL"}, {"measurement": "MIC90", "setting": "[5]; Asia/Pac, N=641", "value": 0.5, "unit": "µg/mL"}, {"measurement": "MIC90", "setting": "[5]; Europe, N=2109", "value": 0.25, "unit": "µg/mL"}, {"measurement": "MIC90", "setting": "[5]; L. Amer, N=590", "value": 0.25, "unit": "µg/mL"}, {"measurement": "Cumulative % Inhibition at MIC", "setting": "[5]; MIC 1 μg/ml", "value": 99.9, "unit": "%"}, {"measurement": "Cumulative % Inhibition at MIC", "setting": "[5]; MIC 2 μg/ml", "value": 100, "unit": "%"}, {"measurement": "Cumulative % Inhibition at MIC", "setting": "[5]; MIC ≤0.5 μg/ml", "value": 99.7, "unit": "%"}, {"measurement": "MIC90", "setting": "[5]; N America, N=2373", "value": 0.25, "unit": "µg/mL"}, {"measurement": "MIC90", "setting": "[6]; Asia/Pac, N=24", "value": 0.25, "unit": "µg/mL"}, {"measurement": "MIC90", "setting": "[6]; Europe, N=71", "value": 0.25, "unit": "µg/mL"}, {"measurement": "MIC90", "setting": "[6]; L. Amer, N=41", "value": 0.12, "unit": "µg/mL"}, {"measurement": "Cumulative % Inhibition at MIC", "setting": "[6]; MIC 1 μg/ml", "value": 100, "unit": "%"}, {"measurement": "Cumulative % Inhibition at MIC", "setting": "[6]; MIC ≤0.5 μg/ml, listed as head image P00004", "value": 98.4, "unit": "%"}, {"measurement": "MIC90", "setting": "[6]; N America, N=478", "value": 0.25, "unit": "µg/mL"}, {"measurement": "MIC90", "setting": "[7]; Asia/Pac, N=428", "value": 1, "unit": "µg/mL"}, {"measurement": "MIC90", "setting": "[7]; Europe, N=750", "value": 0.25, "unit": "µg/mL"}, {"measurement": "MIC90", "setting": "[7]; L. Amer, N=506", "value": 0.25, "unit": "µg/mL"}, {"measurement": "Cumulative % Inhibition at MIC", "setting": "[7]; MIC 1 μg/ml", "value": 98.4, "unit": "%"}, {"measurement": "Cumulative % Inhibition at MIC", "setting": "[7]; MIC 2 μg/ml", "value": 99.8, "unit": "%"}, {"measurement": "Cumulative % Inhibition at MIC", "setting": "[7]; MIC 4 μg/ml", "value": 100, "unit": "%"}, {"measurement": "Cumulative % Inhibition at MIC", "setting": "[7]; MIC ≤0.5 μg/ml", "value": 95.4, "unit": "%"}, {"measurement": "MIC90", "setting": "[7]; N America, N=2508", "value": 0.5, "unit": "µg/mL"}, {"measurement": "MIC90", "setting": "[8]; Asia/Pac, N=189", "value": 4, "unit": "µg/mL"}, {"measurement": "MIC90", "setting": "[8]; Europe, N=361", "value": 4, "unit": "µg/mL"}, {"measurement": "MIC90", "setting": "[8]; L. Amer, N=160", "value": 4, "unit": "µg/mL"}, {"measurement": "Cumulative % Inhibition at MIC", "setting": "[8]; MIC 1 μg/ml", "value": 29.1, "unit": "%"}, {"measurement": "Cumulative % Inhibition at MIC", "setting": "[8]; MIC 2 μg/ml", "value": 79.9, "unit": "%"}, {"measurement": "Cumulative % Inhibition at MIC", "setting": "[8]; MIC 4 μg/ml", "value": 92.1, "unit": "%"}, {"measurement": "Cumulative % Inhibition at MIC", "setting": "[8]; MIC 8 μg/ml", "value": 95.6, "unit": "%"}, {"measurement": "Cumulative % Inhibition at MIC", "setting": "[8]; MIC 16 μg/ml", "value": 98.3, "unit": "%"}, {"measurement": "Cumulative % Inhibition at MIC", "setting": "[8]; MIC ≤0.5 μg/ml, listed as head image P00009", "value": 2.4, "unit": "%"}, {"measurement": "Cumulative % Inhibition at MIC", "setting": "[8]; MIC ≥32 μg/ml", "value": 100, "unit": "%"}, {"measurement": "MIC90", "setting": "[8]; N America, N=671", "value": 4, "unit": "µg/mL"}, {"measurement": "range of MICs (N <10, shown instead of MIC90)", "setting": "[9]; Asia/Pac, N=1", "value": 0.5}, {"measurement": "range of MICs (N <10, shown instead of MIC90)", "setting": "[9]; Europe, N=8", "value": "0.06-0.5"}, {"measurement": "range of MICs (N <10, shown instead of MIC90)", "setting": "[9]; L. Amer, N=7", "value": "≤0.015-0.06"}, {"measurement": "Cumulative % Inhibition at MIC", "setting": "[9]; MIC 1 μg/ml", "value": 100, "unit": "%"}, {"measurement": "Cumulative % Inhibition at MIC", "setting": "[9]; MIC ≤0.5 μg/ml, listed as head image P00002", "value": 98.1, "unit": "%"}, {"measurement": "MIC90", "setting": "[9]; N America, N=38", "value": 0.25, "unit": "µg/mL"}]}
